Test results taken from ChEMBL document CHEMBL2331555 (ACS Med Chem Lett, 2013).
≈ marks a conversion by molar mass, not a printed value.

What was measured:
in vitro = conditions: dog, MDCK
in vivo [1] = conditions: rat, po
in vivo [2] = conditions: rat

With `COc1ccc(-c2ccc3ncc4c(c3n2)n(-c2ccc(C(C)(C)C#N)cc2)c(=O)n4C)cn1` as the compound, how does the solubility kinetic (physchem) read?
The solubility kinetic was 2 µM (≈ 0.901 µg/mL).

And the Papp (in vitro)?
Its Papp is 0.305 ×10⁻⁶ cm/s.

What does the source list for `COc1ccc(-c2ccc3ncc4c(c3n2)n([C@H]2CC[C@H](OCCO)CC2)c(=O)n4C)cn1`?
solubility kinetic (physchem): 117 µM (≈ 52.6 µg/mL); Papp (in vitro): 14.3 ×10⁻⁶ cm/s

Which results are given for `COc1ccc(-c2ccc3ncc4c(c3n2)n([C@H]2CC[C@H](O)CC2)c(=O)n4C)cn1`?
solubility kinetic (physchem): 22.2 µM (≈ 9 µg/mL); Papp (in vitro): 14.3 ×10⁻⁶ cm/s

Which bioavailability (in vivo [1]) does the source give for `COc1ccc(-c2ccc3ncc4c(c3n2)n(C2CCN(C)CC2)c(=O)n4C)cn1` here?
The bioavailability was 76%.

And the Vd (in vivo [2])?
Its Vd is 4.46 L/kg.

And the Papp (in vitro)?
The Papp was 6.65 ×10⁻⁶ cm/s.

Which results are given for `COc1ccc(-c2ccc3ncc4c(c3n2)n(C2CCN(C(C)=O)CC2)c(=O)n4C)cn1`?
solubility kinetic (physchem): 22 µM (≈ 9.51 µg/mL); Papp (in vitro): 16.3 ×10⁻⁶ cm/s

With `CC(=O)N1CCC(n2c(=O)n(C)c3cnc4ccc(-c5ccc(C)nc5)nc4c32)CC1` as the compound, how does the solubility kinetic (physchem) read?
Its solubility kinetic is 455 µM (≈ 190 µg/mL).

What about the Papp (in vitro) of the same compound?
The Papp was 19.5 ×10⁻⁶ cm/s.

With `Cc1ccc(-c2ccc3ncc4c(c3n2)n(C2CCN(C(=O)CO)CC2)c(=O)n4C)cn1` as the compound, how does the Papp (in vitro) read?
Its Papp is 18.2 ×10⁻⁶ cm/s.

With `Cc1ccc(-c2ccc3ncc4c(c3n2)n(C2CCN(C(=O)C(C)(C)O)CC2)c(=O)n4C)cn1` as the compound, how does the Papp (in vitro) read?
The Papp was 21.9 ×10⁻⁶ cm/s.

For `COCC(=O)N1CCC(n2c(=O)n(C)c3cnc4ccc(-c5ccc(C)nc5)nc4c32)CC1`, which Papp (in vitro) is on record?
The Papp was 20.2 ×10⁻⁶ cm/s.

For `CC(=O)N1CCC(n2c(=O)n(C)c3cnc4ccc(-c5cccc6[nH]ncc56)nc4c32)CC1`, which solubility kinetic (physchem) is on record?
Its solubility kinetic is 55.5 µM (≈ 24.5 µg/mL).

What about the Papp (in vitro) of the same compound?
Its Papp is 8.56 ×10⁻⁶ cm/s.

For `CC(=O)N1CCC(n2c(=O)n(C)c3cnc4ccc(-c5cnc6[nH]ncc6c5)nc4c32)CC1`, which Papp (in vitro) is on record?
Its Papp is 3.97 ×10⁻⁶ cm/s.

With `C[C@H](O)C(=O)N1CCC(n2c(=O)n(C)c3cnc4ccc(-c5cccc6[nH]ncc56)nc4c32)CC1` as the compound, how does the solubility kinetic (physchem) read?
The solubility kinetic was 444 µM (≈ 209 µg/mL).

And the Papp (in vitro)?
The Papp was 4.6 ×10⁻⁶ cm/s.
